Columns and labels:
[1] = tested on: Amoeba proteus; assay: in vitro protozoicidal test, LD50/LD100 within 3 minutes; format: cell-based
[2] = tested on: Gregarina blattarum; assay: in vitro protozoicidal test, LD50/LD100 within 3 minutes, gregarines isolated from cockroaches; format: cell-based; conditions: in Ringer's solution
From the text: For in vitro tests of antiprotozoal activity of the composition five reference organisms representing taxonomic groups to which pathogenic protozoa belong were selected, i.e: • Amoeba proteus—Chaos diffluens—a protozoan of the order Euamoebida, belonging to fifth supergroup of the Amoebozoa, living in waters. • Paramecium caudatum—a slipper animalcule representing the Ciliata orachs, living in waters. • Gregarina blattarum—gregarine isolated from cockroaches, representing the phylum Apicomplexa, living in the digestive tracts or body cavities of invertebrates. • Euglena gracilis—a protozoan living in water, representing the flagellates—Mastigophora, family Euglenaceae. • Trichomonas hominis—a protozoan living in the human colon, representing the Trichomonadidae.
The gregarines were isolated from the cockroaches and, after being placed on a watch slide, were treated with the products at different concentrations in Ringer's solution. Each sample contained ten individuals. […]
The mixture was heated at the boiling point, until the colour changed, under reflux for 20 minutes. […] Compositions I and II were then analysed for their antiprotozoal properties. […]
Individual acids, catalyst solution, essential oil and metal salt solutions were additionally analysed for protozoal properties. […] Observation under a fluorescence microscope with phase contrast was carried out.

[3] = tested on: Trichomonas hominis; assay: in vitro protozoicidal test, LD50/LD100 within 3 minutes; format: cell-based
[4] = tested on: Trypanosoma cruzi and Leishmania chagasi; conditions: cited from earlier work
[5] = tested on: Trypanosoma cruzi; conditions: read-out: inhibitory effect on 50% of the population (IC50); cited from earlier work
[6] = tested on: Trypanosoma cruzi and different Leishmania species; conditions: cited from earlier work
[7] = death of 50% of individuals within 3 minutes
[8] = death of 100% of individuals within 3 minutes

Cc1ncc([N+](=O)[O-])n1CCO [M, metronidazole]
LD50 [1, 7]: 0.3%
LD100 [1, 8]: 0.5%
LD50 ([2]; 50% of individuals within 3 minutes): 0.13%
LD100 ([2]; 100% of individuals within 3 minutes): 0.3%
LD50 [3, 7]: 0.05%
LD100 [3, 8]: 0.1%

CC1CS(=O)(=O)CCN1/N=C/c1ccc([N+](=O)[O-])o1 (stereo not drawn) [Nifurtimox]
IC50 [4]: 0.3 to 0.4 µg/mL
IC50 [5]: 6 µM

O=C(Cn1ccnc1[N+](=O)[O-])NCc1ccccc1 [benznidazole]
values obtained (in vitro antiprotozoal activity) [6]: 45.02 µg/mL
